Experiments:
Assay in all cases: NCI 60-cell drug screen, one dose
Format in all cases: cell-based, human
786-0 = details: Renal Cancer 786-0, 1.00E−5 Molar
Description: (§1) In brief, cellular protein levels were determined after 48 hours of drug exposure by sulforhodamine B colorimetry.
(§2) The screening system in United State National Cancer Institute (NCI) consists of 60 kinds of different human cancer cells, which can be used to assay the growth-inhibiting ability or cell toxicity of a compound against various cancer and tumor at a certain concentration. The NCI had selected 6 compounds synthesized above, and performed cell toxicity assay against 60 kinds of cancer cell strains (Table 2) (DTP Human Tumor Cell Line Screen), in which each compound was assayed at a certain concentration to observe its inhibition ability or cell toxicity against various kinds of cancer and tumor.

ACHN = details: Renal Cancer ACHN, 1.00E−5 Molar
Description: as §1, §2

BT-549 = details: Breast Cancer BT-549, 1.00E−5 Molar
Description: as §1, §2

COLO 205 = details: Colon Cancer COLO 205, 1.00E−5 Molar
Description: as §1, §2

DU145 = details: Prostate Cancer DU145, 1.00E−5 Molar
Description: as §1, §2

EKVX = details: Non-Small Cell Lung Cancer EKVX, 1.00E−5 Molar
Description: as §1, §2

HCT-116 = details: Colon Cancer HCT-116, 1.00E−5 Molar
Description: as §1, §2

HCT-15 = details: Colon Cancer HCT-15, 1.00E−5 Molar
Description: as §1, §2

HOP-62 = details: Non-Small Cell Lung Cancer HOP-62, 1.00E−5 Molar
Description: as §1, §2

HOP-92 = details: Non-Small Cell Lung Cancer HOP-92, 1.00E−5 Molar
Description: as §1, §2

IGROV1 = details: Ovarian Cancer IGROV1, 1.00E−5 Molar
Description: as §1, §2

LOX IMVI = details: Melanoma LOX IMVI, 1.00E−5 Molar
Description: as §1, §2

M14 = details: Melanoma M14, 1.00E−5 Molar
Description: as §1, §2

MALME-3M = details: Melanoma MALME-3M, 1.00E−5 Molar
Description: as §1, §2

MCF7 = details: Breast Cancer MCF7, 1.00E−5 Molar
Description: as §1, §2

MDA-MB-231/ATCC = details: Breast Cancer MDA-MB-231/ATCC, 1.00E−5 Molar
Description: as §1, §2

MDA-MB-435 = details: Melanoma MDA-MB-435, 1.00E−5 Molar
Description: as §1, §2

MDA-MB-468 = details: Breast Cancer MDA-MB-468, 1.00E−5 Molar
Description: as §1, §2

NCI-H226 = details: Non-Small Cell Lung Cancer NCI-H226, 1.00E−5 Molar
Description: as §1, §2

NCI-H23 = details: Non-Small Cell Lung Cancer NCI-H23, 1.00E−5 Molar
Description: as §1, §2

NCI-H322M = details: Non-Small Cell Lung Cancer NCI-H322M, 1.00E−5 Molar
Description: as §1, §2

NCI-H522 = details: Non-Small Cell Lung Cancer NCI-H522, 1.00E−5 Molar
Description: as §1, §2

OVCAR-3 = details: Ovarian Cancer OVCAR-3, 1.00E−5 Molar
Description: as §1, §2

OVCAR-5 = details: Ovarian Cancer OVCAR-5, 1.00E−5 Molar
Description: as §1, §2

SF-268 = details: CNS Cancer SF-268, 1.00E−5 Molar
Description: as §1, §2

SF-539 = details: CNS Cancer SF-539, 1.00E−5 Molar
Description: as §1, §2

SK-MEL-2 = details: Melanoma SK-MEL-2, 1.00E−5 Molar
Description: as §1, §2

SK-MEL-5 = details: Melanoma SK-MEL-5, 1.00E−5 Molar
Description: as §1, §2

SK-OV-3 = details: Ovarian Cancer SK-OV-3, 1.00E−5 Molar
Description: as §1, §2

SNB-75 = details: CNS Cancer SNB-75, 1.00E−5 Molar
Description: as §1, §2

SW-620 = details: Colon Cancer SW-620, 1.00E−5 Molar
Description: as §1, §2

T-47D = details: Breast Cancer T-47D, 1.00E−5 Molar
Description: as §1, §2

TK-10 = details: Renal Cancer TK-10, 1.00E−5 Molar
Description: as §1, §2

U251 = details: CNS Cancer U251, 1.00E−5 Molar
Description: as §1, §2

UACC-62 = details: Melanoma UACC-62, 1.00E−5 Molar
Description: as §1, §2

UO-31 = details: Renal Cancer UO-31, 1.00E−5 Molar
Description: as §1, §2

Row | Compound | Growth Percent (786-0) [%] | Growth Percent (ACHN) [%] | Growth Percent (BT-549) [%] | Growth Percent (COLO 205) [%] | Growth Percent (DU145) [%] | Growth Percent (EKVX) [%] | Growth Percent (HCT-116) [%] | Growth Percent (HCT-15) [%] | Growth Percent (HOP-62) [%] | Growth Percent (HOP-92) [%] | Growth Percent (IGROV1) [%] | Growth Percent (LOX IMVI) [%] | Growth Percent (M14) [%] | Growth Percent (MALME-3M) [%] | Growth Percent (MCF7) [%] | Growth Percent (MDA-MB-231/ATCC) [%] | Growth Percent (MDA-MB-435) [%] | Growth Percent (MDA-MB-468) [%] | Growth Percent (NCI-H226) [%] | Growth Percent (NCI-H23) [%] | other results
1 | CCN(CC)Cc1nc2ccc3c(c2[nH]1)C(=O)c1ccccc1C3=O [CL04, 2-((diethylamino)methyl)-1H-anthra[1,2-d]imidazole-6,11-dione] | 64.88 | 48.41 | 105.50 | 81.00 | 73.54 | 73.22 | 48.22 | 65.75 | 85.27 | 56.11 | 13.61 | 61.98 | 97.86 | 98.45 | 51.13 | 75.52 | 88.53 | 54.46 | 77.20 | 75.96 | Growth Percent (NCI-H322M): 90.06%; Growth Percent (NCI-H522): 73.14%; Growth Percent (OVCAR-3): 63.32%; Growth Percent (OVCAR-5): 96.50%; Growth Percent (SF-268): 74.04%; Growth Percent (SF-539): 85.26%; Growth Percent (SK-MEL-2): 102.69%; Growth Percent (SK-MEL-5): 68.20%; Growth Percent (SK-OV-3): 86.81%; Growth Percent (SNB-75): 82.03%; Growth Percent (SW-620): 60.46%; Growth Percent (T-47D): 83.55%; Growth Percent (TK-10): 98.12%; Growth Percent (U251): 70.77%; Growth Percent (UACC-62): 68.47%; Growth Percent (UO-31): 27.21%
2 | O=C1c2ccccc2C(=O)c2c1ccc1nc(CN3CCCCC3)[nH]c21 [CL16, 2-((piperidin-1-yl)methyl)-1H-anthra[1,2-d]imidazole-6,11-dione] | 62.88 | 47.11 | 109.47 | 74.65 | 74.90 | 77.14 | 62.12 | 54.20 | 92.69 | 80.97 | 54.22 | 62.99 | 100.82 | 119.68 | 42.74 | 77.93 | 102.02 | 58.32 | 78.85 | 81.32 | Growth Percent (NCI-H322M): 92.47%; Growth Percent (NCI-H522): 84.14%; Growth Percent (OVCAR-3): 66.26%; Growth Percent (OVCAR-5): 101.70%; Growth Percent (SF-268): 58.46%; Growth Percent (SF-539): 82.47%; Growth Percent (SK-MEL-2): 113.29%; Growth Percent (SK-MEL-5): 65.73%; Growth Percent (SK-OV-3): 92.54%; Growth Percent (SNB-75): 86.42%; Growth Percent (SW-620): 71.72%; Growth Percent (T-47D): 69.11%; Growth Percent (TK-10): 115.68%; Growth Percent (U251): 72.67%; Growth Percent (UACC-62): 74.61%; Growth Percent (UO-31): 42.93%
